The values that follow come from paper PMC12529750 (Emerging Microbes & Infections, 2025).

Some test systems named below: SARS-CoV-2 E166S variant; SARS-CoV-2 S144A variant; SARS-CoV-2 M49L variant; SARS-CoV-2 E166Q variant; SARS-CoV-2 E166G variant; SARS-CoV-2 T169I variant; SARS-CoV-2 E166H variant; SARS-CoV-2 E166L variant.
Holding throughout (assay type): cell-based
For test [1], the system named is SARS-CoV-2 L50F+E166V variant.
Test [2] deals with SARS-CoV-2 M49L+E166A variant.
The test system of test [3] is SARS-CoV-2 replicon with M49L + E166A.
Test [4] relates to SARS-CoV-2 M49L+S144A variant.
The test system of test [5] is SARS-CoV-2 ENS-EV2 (M49L, S144A and T169I in Mpro).
The test system of test [6] is SARS-CoV-2 ENS-EV1 (M49L and S144A in Mpro).
In test [7] the test system is SARS-CoV-2 NIR-EV L50F+E166V.
Test [8] deals with SARS-CoV-2 replicon with M49L + S144A + T169I.
The test system of test [9] is SARS-CoV-2 M49L+S144A+T169I variant.
The subject of test [10] is SARS-CoV-2 replicon with E166A.

For `Cn1cnc(Cn2c(=O)[nH]/c(=N\c3cc4cn(C)nc4cc3Cl)n(Cc3cc(F)c(F)cc3F)c2=O)n1` [ENS, Ensitrelvir], the “Fold resistance, highest in VeroE6 or A549-hACE2 cells” value (“Fold resistance, highest” for short) is “up to 14 fold” in test [1]; “up to 180 fold” in test [2]; greater than 5 fold in the test on SARS-CoV-2 E166S variant; “up to 21 fold” with SARS-CoV-2 S144A variant; “up to 71 fold” with SARS-CoV-2 M49L variant; “up to 290 fold” in [4]. The “Fold resistance, highest” value in test [5] was “up to 280 fold”; in the test on SARS-CoV-2 E166Q variant, less than 5 fold; in test [6] it was “up to 110 fold”; in test [7], “up to 36 fold”; in the test with SARS-CoV-2 E166G variant, less than 5 fold; in the test with SARS-CoV-2 T169I variant, “up to 4.8 fold”. In addition, the “Fold resistance, highest” value in test [9] is listed as “up to 660 fold”; with SARS-CoV-2 E166H variant it was greater than 5 fold. Also, the entries for the “Resistance of replicon (% RLU in treated cultures)” value in test [3] and in [8] were “lower resistance” and “highest resistance”, respectively.
With `CC(C)(C)[C@H](NC(=O)C(F)(F)F)C(=O)N1C[C@H]2[C@@H]([C@H]1C(=O)N[C@H](C#N)C[C@@H]1CCNC1=O)C2(C)C` [NIR, Nirmatrelvir], the “Fold resistance, highest” value is reported as greater than 5 fold in the test on SARS-CoV-2 E166S variant; less than 10 fold in [5]; less than 5 fold with SARS-CoV-2 E166Q variant; less than 10 fold in test [6]; less than 5 fold with SARS-CoV-2 E166G variant; greater than 5 fold in the test with SARS-CoV-2 E166L variant. Also, the “Resistance of replicon (% RLU in treated cultures)” value in [10] and in [3] was “relatively high resistance” in each case.
